Legend:
Format in all cases: in vivo
[1] = system: barnyardgrass (Echinochloa crus-galli); test: Test C flooded paddy test plant response; settings: Flood, 250 g ai/ha; scale of 0 to 100 where 0 is no effect and 100 is complete control; 13 to 15 days
Outline: (§1)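 Water-applied treatment: compounds go directly into floodwater standing 3 cm over the soil of pots holding 2-leaf-stage plants. Depth is kept constant; plants stay in a greenhouse 13 to 15 days before visual comparison with controls on a 0–100 scale.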

[2] = system: small-flower umbrella sedge (Cyperus difformis); test: Test C flooded paddy test plant response; settings: Flood, 250 g ai/ha; scale of 0 to 100 where 0 is no effect and 100 is complete control; 13 to 15 days
Outline: as §1

[3] = system: ducksalad (Heteranthera limosa); test: Test C flooded paddy test plant response; settings: Flood, 250 g ai/ha; scale of 0 to 100 where 0 is no effect and 100 is complete control; 13 to 15 days
Outline: as §1

rice (Oryza sativa) = test: Test C flooded paddy test plant response; settings: Flood, 250 g ai/ha; scale of 0 to 100 where 0 is no effect and 100 is complete control; 13 to 15 days
Outline: as §1

[4] = system: galium (catchweed bedstraw, Galium aparine); test: Test B postemergence plant response; settings: 0 to 100 scale, 0 no effect, 100 complete control
Outline: (§2)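 Plants grown in pots of loam soil–sand blend were sprayed postemergence with formulated test chemicals at 2 to 10 cm height, one- to two-leaf stage. After about 10 days in a greenhouse, injury was visually rated against untreated controls on a 0 to 100 scale (0 no effect, 100 complete control).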

[5] = system: blackgrass (Alopecurus myosuroides); test: Test B postemergence plant response; settings: 0 to 100 scale, 0 no effect, 100 complete control
Outline: as §2

[6] = system: Italian ryegrass (Lolium multiflorum); test: Test B pre-/postemergence plant response
Description: (§3) Seeds of plant species selected from bamyardgrass (Echinochloa crus-galli), kochia (Kochia scoparia), ragweed (common ragweed, Ambrosia elatior), Italian ryegrass (Lolium multiflorum), large (Lg) crabgrass (Digitaria sanguinalis), giant foxtail (Setaria faberii), momingglory (Ipomoea spp.), pigweed (Amaranthus retroflexus), velvetleaf (Abutilon theophrasti), wheat (Triticum aestivum), and corn (Zea mays) were planted into a blend of loam soil and sand and treated preemergence with a directed soil spray using test chemicals formulated in a non-phytotoxic solvent mixture which included a surfactant. At the same time, plants selected from these crop and weed species and also blackgrass (Alopecurus myosuroides), and galium (catchweed bedstraw, Galium aparine) were planted in pots containing the same blend of loam soil and sand and treated with postemergence applications of test chemicals formulated in the same manner. Plants ranged in height from 2 to 10 cm and were in the one- to two-leaf stage for the postemergence treatment. Treated plants and untreated controls were maintained in a greenhouse for approximately 10 days, after which time all treated plants were compared to untreated controls and visually evaluated for injury. Plant response ratings, summarized in Table B, are based on a 0 to 100 scale where 0 is no effect and 100 is complete control. A dash (-) response means no test result.

kochia (Kochia scoparia) = test: Test B pre-/postemergence plant response
Description: as §3

[7] = system: wheat (Triticum aestivum); test: Test B pre-/postemergence plant response; settings: 0 to 100 scale, 0 no effect, 100 complete control
Description: as §3

[8] = system: ragweed (common ragweed, Ambrosia elatior); test: Test B pre-/postemergence plant response
Description: as §3

[9] = system: pigweed (Amaranthus retroflexus); test: Test B pre-/postemergence plant response
Description: as §3

[10] = system: barnyardgrass (Echinochloa crus-galli); test: Test B pre-/postemergence plant response
Description: as §3

[11] = system: giant foxtail (Setaria faberii); test: Test B pre-/postemergence plant response
Description: as §3

corn (Zea mays) = test: Test B pre-/postemergence plant response; settings: 0 to 100 scale, 0 no effect, 100 complete control
Description: as §3

[12] = 31 g ai/ha, Postemergence, 0 to 100 scale, 0 no effect, 100 complete control
[13] = 31 g ai/ha, Preemergence, 0 to 100 scale where 0 is no effect and 100 is complete control
[14] = 125 g ai/ha, postemergence, 0 to 100 scale, 0 no effect, 100 complete control
[15] = Preemergence, 125 g ai/ha, 0 to 100 scale where 0 is no effect and 100 is complete control

| Compound | Barnyardgrass plant response rating [1] | Sedge, Umbrella plant response rating [2] | Ducksalad plant response rating [3] | Rice plant response rating (rice (Oryza sativa)) | Plant response rating, Galium ([4]; 31 g ai/ha, Postemergence) | Plant response rating, Galium ([4]; 125 g ai/ha, postemergence) | Plant response rating, Blackgrass ([5]; 31 g ai/ha, Postemergence) | Plant response rating, Blackgrass ([5]; 125 g ai/ha, postemergence) | Plant response rating, Ryegrass, Italian [6, 12] | Plant response rating, Ryegrass, Italian [6, 13] | Plant response rating, Ryegrass, Italian [6, 14] | Plant response rating, Kochia (kochia (Kochia scoparia); [12]) | Plant response rating, Kochia (kochia (Kochia scoparia); [13]) | Plant response rating, Kochia (kochia (Kochia scoparia); [14]) | Plant response rating, Kochia (kochia (Kochia scoparia); [15]) | Plant response rating, Wheat ([7]; 31 g ai/ha, Postemergence) | Plant response rating, Wheat ([7]; 125 g ai/ha, postemergence) | Plant response rating, Ragweed [8, 12] | Plant response rating, Ragweed [8, 13] | Plant response rating, Ragweed [8, 14] | further results |
| --- | --- | --- | --- | --- | --- | --- | --- | --- | --- | --- | --- | --- | --- | --- | --- | --- | --- | --- | --- | --- | --- |
| N#Cc1cccc(Oc2ncc(Cl)cn2)c1-c1ccsc1 [Compound 112] | 0 | 95 | 30 | 0 | 30 | 50 | 0 | 20 | 0 | 0 | 0 | 60 | 0 | 70 | 50 | 0 | 0 | 20 | 0 | 30 | Plant response rating, Pigweed [9, 12]: 30; Plant response rating, Pigweed [9, 13]: 30; Plant response rating, Pigweed [9, 14]: 30; Plant response rating, Barnyardgrass [10, 12]: 10; Plant response rating, Barnyardgrass [10, 13]: 10; Plant response rating, Barnyardgrass [10, 14]: 30; Plant response rating, Barnyardgrass [10, 15]: 30; Plant response rating, Foxtail, Giant [11, 12]: 10; Plant response rating, Foxtail, Giant [11, 13]: 10; Plant response rating, Foxtail, Giant [11, 14]: 60; Plant response rating, Foxtail, Giant [11, 15]: 70; Plant response rating, Corn (corn (Zea mays); 31 g ai/ha, Postemergence): 10; Plant response rating, Corn (corn (Zea mays); 125 g ai/ha, postemergence): 20 |
| Fc1ccc(Oc2ncc(Cl)cn2)c(-c2cc(C(F)F)on2)c1Br [Compound 114] | 0 | 75 | 75 | 15 | 70 | 100 | 10 | 40 | 10 | 0 | 60 | 70 | 20 | 90 | 20 | 10 | 20 | 0 | 0 | 20 | Plant response rating, Pigweed [9, 12]: 100; Plant response rating, Pigweed [9, 13]: 70; Plant response rating, Pigweed [9, 14]: 100; Plant response rating, Barnyardgrass [10, 12]: 10; Plant response rating, Barnyardgrass [10, 13]: 0; Plant response rating, Barnyardgrass [10, 14]: 20; Plant response rating, Barnyardgrass [10, 15]: 20; Plant response rating, Foxtail, Giant [11, 12]: 20; Plant response rating, Foxtail, Giant [11, 13]: 10; Plant response rating, Foxtail, Giant [11, 14]: 60; Plant response rating, Foxtail, Giant [11, 15]: 30; Plant response rating, Corn (corn (Zea mays); 31 g ai/ha, Postemergence): 30; Plant response rating, Corn (corn (Zea mays); 125 g ai/ha, postemergence): 50 |
| Cn1cnc(-c2ccccc2Oc2ncc(Cl)cn2)n1 [Compound 115] | 0 | 0 | 0 | 0 | 0 | 0 | 0 | 0 | 0 | 0 | 0 | 0 | 0 | 0 | 0 | 0 | 0 | 0 | 0 | 0 | Plant response rating, Pigweed [9, 12]: 0; Plant response rating, Pigweed [9, 13]: 0; Plant response rating, Pigweed [9, 14]: 0; Plant response rating, Barnyardgrass [10, 12]: 0; Plant response rating, Barnyardgrass [10, 13]: 0; Plant response rating, Barnyardgrass [10, 14]: 0; Plant response rating, Barnyardgrass [10, 15]: 0; Plant response rating, Foxtail, Giant [11, 12]: 0; Plant response rating, Foxtail, Giant [11, 13]: 0; Plant response rating, Foxtail, Giant [11, 14]: 0; Plant response rating, Foxtail, Giant [11, 15]: 0; Plant response rating, Corn (corn (Zea mays); 31 g ai/ha, Postemergence): 0; Plant response rating, Corn (corn (Zea mays); 125 g ai/ha, postemergence): 0 |
| Cn1ncnc1-c1ccccc1Oc1ncc(Cl)cn1 [Compound 117] | 0 | 0 | 0 | 0 | 0 | 0 | 0 | 0 | 0 | 0 | 0 | 0 | 0 | 0 | 0 | 0 | 0 | 0 | 0 | 0 | Plant response rating, Pigweed [9, 12]: 0; Plant response rating, Pigweed [9, 13]: 0; Plant response rating, Pigweed [9, 14]: 0; Plant response rating, Barnyardgrass [10, 12]: 0; Plant response rating, Barnyardgrass [10, 13]: 0; Plant response rating, Barnyardgrass [10, 14]: 0; Plant response rating, Barnyardgrass [10, 15]: 0; Plant response rating, Foxtail, Giant [11, 12]: 0; Plant response rating, Foxtail, Giant [11, 13]: 0; Plant response rating, Foxtail, Giant [11, 14]: 0; Plant response rating, Foxtail, Giant [11, 15]: 0; Plant response rating, Corn (corn (Zea mays); 31 g ai/ha, Postemergence): 0; Plant response rating, Corn (corn (Zea mays); 125 g ai/ha, postemergence): 0 |

Source: patent US10131652B2, “Pyrimidinyloxy benzene derivatives as herbicides” (E. I. DU PONT DE NEMOURS AND COMPANY, priority 2014, dated 2018)
